The target of data set [1] is T1, α2 receptors of rat cerebral cortex (Rattus norvegicus, UniProt P22909).
T1 construct: The cerebral cortex is immediately removed; from tissue; host or cells: rat cerebral cortex membranes
T1 sequence (P22909 1-465): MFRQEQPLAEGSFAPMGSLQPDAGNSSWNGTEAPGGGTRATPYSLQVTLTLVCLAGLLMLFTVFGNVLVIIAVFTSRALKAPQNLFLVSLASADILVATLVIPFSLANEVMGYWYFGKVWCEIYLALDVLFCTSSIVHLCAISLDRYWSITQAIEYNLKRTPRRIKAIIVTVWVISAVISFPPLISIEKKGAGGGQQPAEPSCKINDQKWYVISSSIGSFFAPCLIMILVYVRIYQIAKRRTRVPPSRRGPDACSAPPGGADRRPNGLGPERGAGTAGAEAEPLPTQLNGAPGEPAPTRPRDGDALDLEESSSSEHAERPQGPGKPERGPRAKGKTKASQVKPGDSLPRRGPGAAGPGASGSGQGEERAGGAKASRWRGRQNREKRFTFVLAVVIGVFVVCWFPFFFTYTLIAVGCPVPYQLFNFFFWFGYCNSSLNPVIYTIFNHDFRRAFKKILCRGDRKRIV
Nature of the data set: Affinity for the α2 receptors of rat cerebral cortex ([^3 H]clonidine displacement). It counts as binding, Rats (male, CD1, Sprague-Dawley). To be noted: rat cerebral cortex membranes, [^3 H]clonidine as marker. As for the experimental part: Rats (male, CD1, Sprague-Dawley, 200-250 g) are sacrificed by decapitation. The cerebral cortex is immediately removed. The cerebral cortices of 4 rats are homogenized in 40 ml of buffer. The homogenates are centrifuged at 20,000 rpm for 15 minutes. The pellet is resuspended in 40 ml of buffer and subjected to a second centrifugation (20,000 rpm for 15 minutes). The pellet thereby obtained is suspended in 8 ml of buffer and then stored at -80° C. until used. On the day of the experiment, a membrane suspension is prepared from the frozen suspension. Aliquots of this membrane suspension are mixed with radioactive ligands (used as marker for each type of receptor) and with increasing concentrations of the test compound, and then incubated (final volume: 1 ml). Reaction is stopped by filtration through a 48-hole HARVESTER system (WHATMAN GF/B filter strip). The filter strip is then washed 3 times with 5 ml of buffer and thereafter placed in an automatic cutting system (BRANDEL). The cut filters fall into counting vials and 4 ml of scintillation fluid (Aquasafe 300, ZINSSER) are distributed automatically by the same system (BRANDEL). Each sample is subjected to counting of the radioactivity using a liquid scintillation counter (KONTRON). Three experimental series are carried out with the test compound, each experiment being carried out in duplicate. […]

The next data set concerns NMRI mice. Nature of the data set: Pretoxicity in NMRI mice, intraperitoneal. It counts as in vivo. The following applies: 3 animals per dose, IP, increasing doses 16-512 mg/kg. As for the experimental part: Pretoxicity studies were performed in NMRI mice (3 animals per dose) with increasing doses of 16, 32, 64, 128, 256 and 512 mg/kg of products administered intraperitoneally. The dose causing the death of the three animals tested is given.

In the next data set the test system is spontaneous motility. Nature of the data set: Action on spontaneous motility in mice. It counts as in vivo. The following applies: Mus musculus, ip, 0.5 h, intraperitoneal, half an hour before test, motility recorded over 30 minutes, read-out: dose at and above which a significant decrease in locomotion is observed. The method, then: Half an hour after receiving the test compound intraperitoneally, the mice are placed in an activity-measuring device, where their motility is recorded over 30 minutes.

The test system of data set [2] is intergroup aggressive behaviour. Kind of data set: Action on intergroup aggressive behaviour. It counts as in vivo. The following applies: mice, half an hour after test compound, fights in 10 minutes. The method, then: After spending 3 weeks in each of the halves of a cage separated by an opaque partition, groups of 3 mice receive the test compound. Half an hour later, the two groups in the same cage are brought together by withdrawing the partition, and the number of fights occurring in the course of 10 minutes is noted.

A further data set has as its system α2 receptors. Nature of the data set: Interaction with yohimbine in mice. It counts as in vivo.

Structures can show the parent of a compound that is named as a salt. Where only a bound is given, the exact number is not on record here.

A word on the IC50: it is the midpoint of a concentration-inhibition curve. A lower IC50 goes with inhibition by little substance. On to `CC(C)N1CCC=C(c2ccccc2)C1` [CRL 41 244, N-isopropyl-3-phenyl-l,2,5,6-tetrahydropyridine, reference compound], for which the concentration for half-maximal inhibition (IC50) in data set [1] came out at 700 nM. This lies in the sub-micromolar range.

For the compound `C1=C(c2ccccc2)CNCC1` [Example 1, 3-phenyl-l,2,5,6-tetrahydropyridine hydrochloride], in the data set with NMRI mice, the “dose causing the death of the three animals tested” value is recorded as 128 mg/kg. In addition, the minimal effective dose was at least 0.032 mg/kg with spontaneous motility; at least 0.032 mg/kg in data set [2] (Mus musculus, 0.5 h, read-out: dose at and above which the number of fights is decreased). For the same compound, the “dose at which the number of fights is most particularly decreased” value in data set [2] was 0.125 mg/kg. The same compound showed an IC50 in data set [1] of 26 nM. The “effect of yohimbine on hypothermia induced by the compound” value in the data set with α2 receptors (yohimbine 0.5 mg/kg i.p., compound 0.125 and 0.5 mg/kg i.p.) was “decreases the hypothermia”. Also, the “effect of yohimbine on hypomotility induced by the compound” value in the data set with α2 receptors (yohimbine 1 mg/kg i.p., compound 0.5 and 2 mg/kg i.p.) is on record as “decreases the hypomotility”.
